# Patent US20110294772A1, “USE OF CYCLOSQUARAMIDE COMPOUNDS AS ANTI-TUMOUR AGENTS” (priority 2008, published 2011)
# Several values for one entry are separate records, joined by “and”; a condition that tells them apart may be missing. Equal values may be shown once.
# What was measured:
# ABL1 = ABL1 (Homo sapiens, UniProt P00519); experiment: in vitro kinase assay; type: biochemical
# Method: (§1) Specifically, against a panel of 210 kinases representative of the human kinome, the compounds tested inhibited by […] the activity of 25 of them in in Vitro assays (Table 1).
# (§2) The IC50 was determined for the most sensitive kinases to compound 10, obtaining values for said parameter, largely in the micromolar range. For this purpose, the 25 kinases inhibited more than 80% by the compound in in vitro assays were selected.
# ACK1 = ACK1 (Homo sapiens, UniProt Q07912); experiment: in vitro kinase assay; type: biochemical
# Method: as §1, §2
# CDK4/CycD3 = CDK4/CycD3 (Homo sapiens, UniProt P11802); experiment: in vitro kinase assay; type: biochemical
# Method: as §1, §2
# CDK9/CycT = CDK9/CycT (Homo sapiens, UniProt P50750); experiment: in vitro kinase assay; type: biochemical
# Method: as §1, §2
# FGF-R1 VM = FGF-R1 VM (Homo sapiens, UniProt P11362, V561M); experiment: in vitro kinase assay; type: biochemical
# Method: as §1, §2
# S6K = S6K (Homo sapiens, UniProt P23443); experiment: in vitro kinase assay; type: biochemical
# Method: as §1, §2
# Jeko-1 = experiment: cell viability assay; type: cell-based, human
# Method: The IC50 in cell viability assays were determined for some of the macrocycles prepared in Jeko-1 (B-cell lymphoma (MCL) type cells. With a total incubation period of 48 h.
# A549 (Lung) = experiment: NCI60 panel IC50; type: cell-based; details: Homo sapiens
# Method: (§3) On the other hand, the values of IC50 were determined in the panel of NCl60 cell lines for compound 10.
# (§4) A total of 2 independent experiments were carried out with assays in triplicate for the compound and cell line. All those assays where an IC50 value was not reached in the highest concentration of 1E-05 M are represented by “>1E-05”. In these cases, the standard deviation cannot be calculated and for that reason it is calculated as “-”.
# ACHN (Renal) = experiment: NCI60 panel IC50; type: cell-based; details: Homo sapiens
# Method: as §3, §4
# BT-549 (Breast) = experiment: NCI60 panel IC50; type: cell-based; details: Homo sapiens
# Method: as §3, §4
# CCRF-CEM (Leukaemia) = experiment: NCI60 panel IC50; type: cell-based; details: Homo sapiens
# Method: as §3, §4
# COLO-205 (Colon) = experiment: NCI60 panel IC50; type: cell-based; details: Homo sapiens
# Method: as §3, §4
# DMS-114 (Lung) = experiment: NCI60 panel IC50; type: cell-based; details: Homo sapiens
# Method: as §3, §4
# HCT-116 (Colon) = experiment: NCI60 panel IC50; type: cell-based; details: Homo sapiens
# Method: as §3, §4
# HI-60 (Leukaemia) = experiment: NCI60 panel IC50; type: cell-based; details: Homo sapiens
# Method: as §3, §4
# HOP-62 (Lung) = experiment: NCI60 panel IC50; type: cell-based; details: Homo sapiens
# Method: as §3, §4
# Hs-578-T (Breast) = experiment: NCI60 panel IC50; type: cell-based; details: Homo sapiens
# Method: as §3, §4
# K-562 (Leukaemia) = experiment: NCI60 panel IC50; type: cell-based; details: Homo sapiens, K562
# Method: as §3, §4
# MALME-3M (Melanoma) = experiment: NCI60 panel IC50; type: cell-based; details: Homo sapiens
# Method: as §3, §4
# MCF-7 (Breast) = experiment: NCI60 panel IC50; type: cell-based; details: Homo sapiens, MCF7
# Method: as §3, §4
# MOLT-4 (Leukaemia) = experiment: NCI60 panel IC50; type: cell-based; details: Homo sapiens
# Method: as §3, §4
# NCI-H23 (Lung) = experiment: NCI60 panel IC50; type: cell-based; details: Homo sapiens
# Method: as §3, §4
# NCI-H460 (Lung) = experiment: NCI60 panel IC50; type: cell-based; details: Homo sapiens
# Method: as §3, §4
# OVCAR-3 (Ovarian) = experiment: NCI60 panel IC50; type: cell-based; details: Homo sapiens
# Method: as §3, §4
# PC-3 (Prostate) = experiment: NCI60 panel IC50; type: cell-based; details: Homo sapiens
# Method: as §3, §4
# RPMI-8226 (Leukaemia) = experiment: NCI60 panel IC50; type: cell-based; details: Homo sapiens
# Method: as §3, §4
# SF-295 (CNS) = experiment: NCI60 panel IC50; type: cell-based; details: Homo sapiens
# Method: as §3, §4
# SF539 (Astrocytoma) = experiment: NCI60 panel IC50; type: cell-based; details: Homo sapiens, SF-539
# Method: as §3, §4
# SHP-77 (Lung) = experiment: NCI60 panel IC50; type: cell-based; details: Homo sapiens, SHP77
# Method: as §3, §4
# SK-BR-3 (Breast) = experiment: NCI60 panel IC50; type: cell-based; details: Homo sapiens
# Method: as §3, §4
# SK-MEL-2 (Melanoma) = experiment: NCI60 panel IC50; type: cell-based; details: Homo sapiens
# Method: as §3, §4
# SK-MEL-5 (Melanoma) = experiment: NCI60 panel IC50; type: cell-based; details: Homo sapiens
# Method: as §3, §4
# SNB-19 (CNS) = experiment: NCI60 panel IC50; type: cell-based; details: Homo sapiens
# Method: as §3, §4
# SW-480 (Colon) = experiment: NCI60 panel IC50; type: cell-based; details: Homo sapiens, SW480
# Method: as §3, §4
# Sw-620 (Colon) = experiment: NCI60 panel IC50; type: cell-based; details: Homo sapiens
# Method: as §3, §4
# T47-D (Breast) = experiment: NCI60 panel IC50; type: cell-based; details: Homo sapiens, T47D
# Method: as §3, §4
# TK-10 (Renal) = experiment: NCI60 panel IC50; type: cell-based; details: Homo sapiens
# Method: as §3, §4
# U-251 (CNS) = experiment: NCI60 panel IC50; type: cell-based; details: Homo sapiens
# Method: as §3, §4
# UACC-62 (Melanoma) = experiment: NCI60 panel IC50; type: cell-based; details: Homo sapiens
# Method: as §3, §4
# UO-31 (Renal) = experiment: NCI60 panel IC50; type: cell-based; details: Homo sapiens
# Method: as §3, §4
# Chain of CDK4/CycD3 (P11802 whole entry): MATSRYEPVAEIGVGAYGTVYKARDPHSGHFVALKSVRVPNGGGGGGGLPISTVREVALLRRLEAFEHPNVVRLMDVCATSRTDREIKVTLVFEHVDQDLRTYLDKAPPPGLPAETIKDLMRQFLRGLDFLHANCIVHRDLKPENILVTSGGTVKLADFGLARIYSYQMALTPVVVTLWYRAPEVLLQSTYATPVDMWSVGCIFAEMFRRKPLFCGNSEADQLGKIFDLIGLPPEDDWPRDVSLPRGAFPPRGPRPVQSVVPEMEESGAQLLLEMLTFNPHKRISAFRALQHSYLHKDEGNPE
# Chain of CDK4/CycD3 (P30281 whole entry partner): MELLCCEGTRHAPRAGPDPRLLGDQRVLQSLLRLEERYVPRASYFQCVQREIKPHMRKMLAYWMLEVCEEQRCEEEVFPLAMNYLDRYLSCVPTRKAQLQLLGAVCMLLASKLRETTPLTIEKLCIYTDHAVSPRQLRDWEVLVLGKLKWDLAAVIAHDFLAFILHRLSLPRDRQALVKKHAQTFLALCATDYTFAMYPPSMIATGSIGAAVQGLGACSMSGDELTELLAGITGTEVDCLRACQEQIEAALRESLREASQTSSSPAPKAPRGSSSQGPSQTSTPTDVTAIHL
# Chain of CDK9/CycT (P50750 whole entry): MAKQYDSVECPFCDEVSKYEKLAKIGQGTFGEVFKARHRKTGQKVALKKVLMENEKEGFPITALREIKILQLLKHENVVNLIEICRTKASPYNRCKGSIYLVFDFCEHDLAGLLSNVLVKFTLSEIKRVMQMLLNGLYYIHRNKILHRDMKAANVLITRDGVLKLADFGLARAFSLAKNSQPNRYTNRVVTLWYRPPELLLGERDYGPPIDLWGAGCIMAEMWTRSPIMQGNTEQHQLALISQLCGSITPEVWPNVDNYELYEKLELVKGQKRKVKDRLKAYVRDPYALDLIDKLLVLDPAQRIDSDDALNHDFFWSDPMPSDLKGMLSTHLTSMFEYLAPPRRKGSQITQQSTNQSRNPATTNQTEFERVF
# Chain of CDK9/CycT (O60563 whole entry partner): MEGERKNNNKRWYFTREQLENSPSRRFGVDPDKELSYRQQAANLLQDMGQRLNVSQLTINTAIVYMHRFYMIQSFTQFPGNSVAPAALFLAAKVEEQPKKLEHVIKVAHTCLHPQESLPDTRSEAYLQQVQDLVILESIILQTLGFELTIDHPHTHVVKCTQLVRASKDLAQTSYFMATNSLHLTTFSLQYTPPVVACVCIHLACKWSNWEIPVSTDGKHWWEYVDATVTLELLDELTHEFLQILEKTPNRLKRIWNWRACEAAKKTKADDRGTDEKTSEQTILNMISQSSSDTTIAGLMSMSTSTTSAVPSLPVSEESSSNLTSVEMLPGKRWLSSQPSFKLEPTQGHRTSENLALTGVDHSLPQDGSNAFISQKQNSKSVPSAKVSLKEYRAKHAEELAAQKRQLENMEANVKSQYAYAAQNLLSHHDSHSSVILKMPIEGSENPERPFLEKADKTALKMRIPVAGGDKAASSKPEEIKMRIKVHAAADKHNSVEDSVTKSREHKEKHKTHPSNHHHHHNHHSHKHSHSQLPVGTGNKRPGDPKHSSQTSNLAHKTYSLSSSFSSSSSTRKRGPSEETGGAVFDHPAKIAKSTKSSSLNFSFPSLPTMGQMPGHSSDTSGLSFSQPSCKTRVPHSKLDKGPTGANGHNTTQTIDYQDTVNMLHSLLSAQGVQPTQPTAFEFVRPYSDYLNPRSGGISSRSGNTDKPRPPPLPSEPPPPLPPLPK
# Chain of FGF-R1 VM (P11362 402-822 V561M limits assumed): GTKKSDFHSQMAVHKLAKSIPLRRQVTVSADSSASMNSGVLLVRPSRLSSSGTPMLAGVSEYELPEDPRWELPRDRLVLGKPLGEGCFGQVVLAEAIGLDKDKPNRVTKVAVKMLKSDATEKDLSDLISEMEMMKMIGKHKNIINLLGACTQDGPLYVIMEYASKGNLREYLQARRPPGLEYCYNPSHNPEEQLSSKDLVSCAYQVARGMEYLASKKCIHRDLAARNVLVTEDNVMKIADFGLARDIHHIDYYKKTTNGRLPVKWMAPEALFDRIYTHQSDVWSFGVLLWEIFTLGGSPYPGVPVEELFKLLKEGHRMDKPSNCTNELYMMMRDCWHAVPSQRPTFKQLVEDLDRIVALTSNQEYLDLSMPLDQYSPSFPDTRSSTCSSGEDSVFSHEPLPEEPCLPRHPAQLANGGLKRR
# Chain of ABL1 (P00519 whole entry): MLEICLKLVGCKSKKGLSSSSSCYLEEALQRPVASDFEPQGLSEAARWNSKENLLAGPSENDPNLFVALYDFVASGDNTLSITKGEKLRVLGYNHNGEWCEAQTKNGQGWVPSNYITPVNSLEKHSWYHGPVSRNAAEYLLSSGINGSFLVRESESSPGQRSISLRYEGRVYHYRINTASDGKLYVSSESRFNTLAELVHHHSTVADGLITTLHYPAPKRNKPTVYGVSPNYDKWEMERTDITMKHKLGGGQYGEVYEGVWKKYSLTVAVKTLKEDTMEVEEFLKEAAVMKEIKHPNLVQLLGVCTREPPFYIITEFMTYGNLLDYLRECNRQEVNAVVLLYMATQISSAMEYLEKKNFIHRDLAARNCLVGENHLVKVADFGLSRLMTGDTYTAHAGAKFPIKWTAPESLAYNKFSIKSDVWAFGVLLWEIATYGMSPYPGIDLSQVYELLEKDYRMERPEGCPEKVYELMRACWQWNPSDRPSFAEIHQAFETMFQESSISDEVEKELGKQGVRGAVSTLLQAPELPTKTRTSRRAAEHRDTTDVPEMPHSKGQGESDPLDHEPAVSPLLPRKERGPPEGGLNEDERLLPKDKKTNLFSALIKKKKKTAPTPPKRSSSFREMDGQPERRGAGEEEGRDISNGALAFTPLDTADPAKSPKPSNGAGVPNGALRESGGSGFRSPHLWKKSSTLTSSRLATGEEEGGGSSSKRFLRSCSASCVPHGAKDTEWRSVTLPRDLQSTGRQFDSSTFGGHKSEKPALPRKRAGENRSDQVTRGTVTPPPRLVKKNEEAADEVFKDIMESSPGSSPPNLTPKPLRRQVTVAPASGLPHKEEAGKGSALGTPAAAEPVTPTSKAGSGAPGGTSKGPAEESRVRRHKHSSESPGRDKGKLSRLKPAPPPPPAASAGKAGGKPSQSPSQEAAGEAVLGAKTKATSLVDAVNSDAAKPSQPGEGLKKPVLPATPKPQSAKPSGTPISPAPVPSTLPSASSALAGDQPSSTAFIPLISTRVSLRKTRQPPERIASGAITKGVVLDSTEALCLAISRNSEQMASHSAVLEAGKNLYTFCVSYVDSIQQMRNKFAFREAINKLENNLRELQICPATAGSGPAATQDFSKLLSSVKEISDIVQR
# Chain of S6K (P23443 whole entry): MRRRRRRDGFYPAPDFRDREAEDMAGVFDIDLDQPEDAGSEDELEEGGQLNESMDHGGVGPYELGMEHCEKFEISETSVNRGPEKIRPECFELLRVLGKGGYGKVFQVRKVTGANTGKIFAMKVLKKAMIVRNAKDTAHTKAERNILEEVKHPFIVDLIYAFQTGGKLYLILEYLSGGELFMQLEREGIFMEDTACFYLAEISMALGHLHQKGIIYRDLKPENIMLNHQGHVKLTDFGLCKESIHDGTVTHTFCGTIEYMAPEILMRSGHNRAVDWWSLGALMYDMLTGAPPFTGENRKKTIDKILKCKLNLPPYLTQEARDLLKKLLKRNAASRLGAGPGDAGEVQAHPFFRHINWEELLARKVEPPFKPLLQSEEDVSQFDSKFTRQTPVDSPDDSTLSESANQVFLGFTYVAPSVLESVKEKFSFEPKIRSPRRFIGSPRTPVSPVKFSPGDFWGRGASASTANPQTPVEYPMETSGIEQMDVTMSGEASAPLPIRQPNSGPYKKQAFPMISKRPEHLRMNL
# Chain of ACK1 (Q07912 whole entry): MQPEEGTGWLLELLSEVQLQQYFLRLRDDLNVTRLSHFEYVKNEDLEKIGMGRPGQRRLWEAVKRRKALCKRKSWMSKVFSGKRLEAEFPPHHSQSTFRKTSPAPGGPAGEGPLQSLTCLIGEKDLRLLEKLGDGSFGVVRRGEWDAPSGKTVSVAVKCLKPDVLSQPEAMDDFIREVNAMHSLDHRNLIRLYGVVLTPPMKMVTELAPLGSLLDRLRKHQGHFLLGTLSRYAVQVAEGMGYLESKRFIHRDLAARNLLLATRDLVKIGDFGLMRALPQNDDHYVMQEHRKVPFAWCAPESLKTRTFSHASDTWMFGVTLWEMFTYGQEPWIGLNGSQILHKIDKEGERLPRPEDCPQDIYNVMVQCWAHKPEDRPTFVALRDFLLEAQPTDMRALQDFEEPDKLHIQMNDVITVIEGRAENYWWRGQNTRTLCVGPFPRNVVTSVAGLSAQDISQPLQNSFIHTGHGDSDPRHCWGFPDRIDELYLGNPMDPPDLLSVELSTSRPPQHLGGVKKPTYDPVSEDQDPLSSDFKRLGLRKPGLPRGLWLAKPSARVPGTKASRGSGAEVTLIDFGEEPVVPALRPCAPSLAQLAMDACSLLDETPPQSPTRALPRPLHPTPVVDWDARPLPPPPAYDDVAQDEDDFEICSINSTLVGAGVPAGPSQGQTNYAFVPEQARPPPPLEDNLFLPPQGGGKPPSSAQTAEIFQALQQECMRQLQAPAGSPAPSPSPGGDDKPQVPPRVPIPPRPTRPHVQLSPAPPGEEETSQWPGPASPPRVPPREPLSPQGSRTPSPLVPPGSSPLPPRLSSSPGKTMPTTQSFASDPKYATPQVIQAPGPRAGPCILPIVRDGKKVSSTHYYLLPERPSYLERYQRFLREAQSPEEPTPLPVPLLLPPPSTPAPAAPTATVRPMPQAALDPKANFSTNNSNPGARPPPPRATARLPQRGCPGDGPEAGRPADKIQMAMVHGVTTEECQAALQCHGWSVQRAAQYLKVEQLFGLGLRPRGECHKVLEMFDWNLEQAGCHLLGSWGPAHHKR
smiles,measurement,setting,value
CN1CCCNc2c(c(=O)c2=O)NCCCN(C)CCCNc2c(c(=O)c2=O)NCCCN(C)CCCNc2c(c(=O)c2=O)NCCCN(C)CCCNc2c(c(=O)c2=O)NCCCN(C)CCCNc2c(c(=O)c2=O)NCCC1 [Compound 10],IC50,ABL1,5.4 µM
same,inhibition of kinase Ack1,ACK1,85%
same,IC50,CDK4/CycD3,5.4 µM and 5.3 µM
same,inhibition of kinase cdk9,CDK9/CycT; in vitro kinase assay,87%
same,IC50,"CDK9/CycT; kinase CDK9/CycT, in vitro",3.7 µM
same,IC50,FGF-R1 VM,2.6 µM
same,IC50,S6K,4.4 µM
same,IC50,"Jeko-1; Homo sapiens, JeKo-1, 48 h, cell viability, total incubation period 48 h, read-out: IC50 (μM) against Jeko-1 cells",30.7 µM
same,% Cell viability,"Jeko-1; Jeko-1 B-cell lymphoma (MCL), 48 h, with respect to untreated control cells",46%
same,IC50,A549 (Lung),5.29 µM
same,IC50,ACHN (Renal),3.25 µM
same,IC50,BT-549 (Breast),2.21 µM
same,IC50,CCRF-CEM (Leukaemia),2.09 µM
same,IC50,COLO-205 (Colon),3.23 µM
same,IC50,DMS-114 (Lung),8.72 µM
same,IC50,HCT-116 (Colon),2.98 µM
same,IC50,HI-60 (Leukaemia),2.41 µM
same,IC50,HOP-62 (Lung),6.37 µM
same,IC50,Hs-578-T (Breast),7.79 µM
same,IC50,K-562 (Leukaemia),4.07 µM
same,IC50,MALME-3M (Melanoma),9.28 µM
same,IC50,MCF-7 (Breast),4.67 µM
same,IC50,MOLT-4 (Leukaemia),1.36 µM
same,IC50,NCI-H23 (Lung),3.02 µM
same,IC50,NCI-H460 (Lung),6.88 µM
same,IC50,OVCAR-3 (Ovarian),5.07 µM
same,IC50,PC-3 (Prostate),2.46 µM
same,IC50,RPMI-8226 (Leukaemia),8.97 µM
same,IC50,SF-295 (CNS),5.52 µM
same,IC50,SF539 (Astrocytoma),3.52 µM
same,IC50,SHP-77 (Lung),2.9 µM
same,IC50,SK-BR-3 (Breast),0.308 µM
same,IC50,SK-MEL-2 (Melanoma),3.29 µM
same,IC50,SK-MEL-5 (Melanoma),2.75 µM
same,IC50,SNB-19 (CNS),1.81 µM
same,IC50,SW-480 (Colon),1.8 µM
same,IC50,Sw-620 (Colon),9.41 µM
same,IC50,T47-D (Breast),1.89 µM
same,IC50,TK-10 (Renal),3.36 µM
same,IC50,U-251 (CNS),7.86 µM
same,IC50,UACC-62 (Melanoma),1.34 µM
same,IC50,UO-31 (Renal),2.17 µM
